Experimental data: patent US8846673B2, “Azaindazoles as kinase inhibitors and use thereof” (Bristol-Myers Squibb Company, priority 2009, dated 2014)

These compounds were tested against Btk (pY551) in Ramos cells (Homo sapiens (Human), UniProt Q06187) (assay: Btk Phosphorylation Assay). Settings: 1 hr preincubation, stimulated with anti-human IgM+IgG 50 μg/mL for 2 min.
Assay type: cell-based
Description: Btk Phosphorylation Assay
Ramos cells (˜6×10^6 cells/10 were incubated in the presence of Btk inhibitors for 1 hr at 37° C. before being stimulated with anti-human IgM+IgG (F(ab′)2 fragment, Jackson ImmunoResearch, Catalog No. 109-006-127) at 50 μg/mL for exactly 2 min at 37° C. Cells were immediately fixed by adding an equal volume of pre-warmed BD Phosflow Fix buffer I (BD Biosciences, catalog number 557870) to the cell suspension. After incubating at 37° C. for 10 minutes, the cells were washed once with 3 mL FACS washing buffer (1% FBS/PBS) and permeabilized by adding 0.5 mL of cold BD Phosflow Penn Buffer III (BD Biosciences, Catalog No. 558050) and incubating for 30 minutes on ice. The cells were washed an additional two times with 3 mL BD FACS washing buffer, re-suspended in 100 μL FACS washing buffer, stained with 20 μL, Alexa647 anti-Btk (pY551) (BD Biosciences, Catalog No. 558134), incubated at room temperature for 30 minutes in the dark, and washed once with 3 ml of FACS washing buffer. The cells were re-suspended in 400 μl FACS wash buffer and analyzed using FACSCalibur (BD Biosciences). Median fluorescent intensity (MFI) on Alexa 647 (FL-4) data were collected and used for calculations of inhibition.

Sequence of Btk (pY551) in Ramos cells (Q06187 whole entry): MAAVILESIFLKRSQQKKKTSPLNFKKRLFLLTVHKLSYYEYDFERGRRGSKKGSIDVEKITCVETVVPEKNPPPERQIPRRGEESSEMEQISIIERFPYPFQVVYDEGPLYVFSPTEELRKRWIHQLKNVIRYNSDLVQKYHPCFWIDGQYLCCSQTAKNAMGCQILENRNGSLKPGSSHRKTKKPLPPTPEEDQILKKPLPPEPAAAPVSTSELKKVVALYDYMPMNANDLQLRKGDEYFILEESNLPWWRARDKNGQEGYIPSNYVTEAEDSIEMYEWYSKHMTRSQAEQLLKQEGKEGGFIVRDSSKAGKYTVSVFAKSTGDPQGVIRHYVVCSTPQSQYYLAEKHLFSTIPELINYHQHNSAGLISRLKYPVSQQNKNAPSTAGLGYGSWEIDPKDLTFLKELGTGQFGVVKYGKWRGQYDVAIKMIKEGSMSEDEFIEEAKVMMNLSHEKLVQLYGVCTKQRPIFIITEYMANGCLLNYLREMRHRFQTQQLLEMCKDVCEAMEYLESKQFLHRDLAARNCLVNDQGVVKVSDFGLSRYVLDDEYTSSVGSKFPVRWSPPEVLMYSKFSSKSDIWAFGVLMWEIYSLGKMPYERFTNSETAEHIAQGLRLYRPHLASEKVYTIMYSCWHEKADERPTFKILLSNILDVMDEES

Row | IC50 [nM] | Structure (SMILES)
1 | 320 | Nc1n[nH]c2nccc(-c3ccc(Oc4ccccc4)cc3)c12 [Example 6, 4-(4-Phenoxyphenyl)-1H-pyrazolo[3,4-b]pyridin-3-amine]

These compounds were tested against human recombinant Btk (Homo sapiens (Human), UniProt Q06187) (assay: Human Recombinant Btk Enzyme Assay (LLE_Btk)). Settings: human recombinant Btk 1 nM, ATP 20 μM, 60 min room temperature.
Assay type: biochemical
Description: Human Recombinant Btk Enzyme Assay
After incubating at room temperature for 60 min, the reaction was terminated by adding 45 μl of 35 mM EDTA to each sample. The reaction mixture was analyzed on the Caliper LABCHIP® 3000 (Caliper, Hopkinton, Mass.) by electrophoretic separation of the fluorescent substrate and phosphorylated product. […] Compounds were dissolved at 10 mM in dimethylsulfoxide (DMSO) and evaluated at eleven concentrations.

Sequence of human recombinant Btk (Q06187 whole entry): as above

Row | Structure (SMILES) | IC50 [nM]
2 | Cc1cccc(Oc2ccc(-c3cc(C4CCCC4)nc4[nH]nc(N)c34)cc2)c1 [Example 5, 6-Cyclopentyl-4-(4-(3-methylphenoxy)phenyl)-1H-pyrazolo[3,4-b]pyridin-3-amine] | 290
3 | Nc1n[nH]c2c(-c3ccc4[nH]ccc4c3)ncc(-c3ccc(Oc4ccccc4)cc3)c12 [Example 95, 7-(1H-Indol-5-yl)-4-(4-phenoxyphenyl)-1H-pyrazolo[3,4-c]pyridin-3-amine] | 250
4 | Cc1ccccc1-c1ncc(-c2ccc(Oc3ccccc3)cc2)c2c(N)n[nH]c12 [Example 107, 7-(2-Methylphenyl)-4-(4-phenoxyphenyl)-1H-pyrazolo[3,4-c]pyridin-3-amine] | 12700
5 | CS(=O)(=O)Nc1cccc(-c2ncc(-c3ccc(Oc4ccccc4)cc3)c3c(N)n[nH]c23)c1 [Example 62, N-(3-(3-Amino-4-(4-phenoxyphenyl)-1H-pyrazolo[3,4-c]pyridin-7-yl)phenyl) methanesulfonamide] | 270
6 | CC(C)Oc1ccc(-c2cncc3[nH]nc(N)c23)cc1 [Example 43, 4-(4-Isopropoxyphenyl)-1H-pyrazolo[3,4-c]pyridin-3-amine] | 9310
7 | Nc1n[nH]c2cncc(-c3ccc(C(=O)N4CCCC4)cc3)c12 [Example 47, 4-(4-(1-Pyrrolidinylcarbonyl)phenyl)-1H-pyrazolo[3,4-c]pyridin-3-amine] | 40600
8 | CC(C)COc1cccc(-c2ncc(-c3ccc(Oc4ccccc4)cc3)c3c(N)n[nH]c23)c1 [Example 102, 7-(3-Isobutoxyphenyl)-4-(4-phenoxyphenyl)-1H-pyrazolo[3,4-c]pyridin-3-amine] | 14000
9 | Cc1csc(NC(=O)NC2CCN(c3cc(-c4ccc(Oc5ccccc5)cc4)c4c(N)n[nH]c4n3)C2)n1 (stereo not drawn) [Example 31, 1-(1-(3-Amino-4-(4-phenoxyphenyl)-1H-pyrazolo[3,4-b]pyridin-6-yl)-3-pyrrolidinyl)-3-(4-methyl-1,3-thiazol-2-yl)urea] | 9410
10 | CS(=O)(=O)Nc1ccc(-c2ncc(-c3ccc(Oc4ccccc4)cc3)c3c(N)n[nH]c23)cc1 [Example 96, N-(4-(3-Amino-4-(4-phenoxyphenyl)-1H-pyrazolo[3,4-c]pyridin-7-yl)phenyl)methanesulfonamide] | 280
11 | Nc1n[nH]c2c(-c3ccc(NC(=O)c4ccccc4)cc3)ncc(-c3ccc(Oc4ccccc4)cc3)c12 [Example 61, N-(4-(3-Amino-4-(4-phenoxyphenyl)-1H-pyrazolo[3,4-c]pyridin-7-yl)phenyl)benzamide] | 14900
12 | Nc1n[nH]c2c(-c3ccc(Cl)c(Cl)c3)ncc(-c3ccc(Oc4ccccc4)cc3)c12 [Example 82, 7-(3,4-Dichlorophenyl)-4-(4-phenoxyphenyl)-1H-pyrazolo[3,4-c]pyridin-3-amine] | 9180
13 | Nc1n[nH]c2cncc(-c3ccc(OC4CCCC4)cc3)c12 [Example 44, 4-(4-(Cyclopentyloxy)phenyl)-1H-pyrazolo[3,4-c]pyridin-3-amine] | 9490

The next lines start with the values.

Row | IC50 [nM] | Structure (SMILES)
14 | 13800 | Nc1n[nH]c2c(-c3cccc(OC(F)(F)F)c3)ncc(-c3ccc(Oc4ccccc4)cc3)c12 [Example 113, 4-(4-Phenoxyphenyl)-7-(3-(trifluoromethoxy)phenyl)-1H-pyrazolo[3,4-c]pyridin-3-amine]
15 | 260 | COc1ccc(-c2cnc(Nc3ccccc3C)c3[nH]nc(N)c23)cc1 [Example 132, 4-(4-Methoxyphenyl)-N^7-(2-methylphenyl)-1H-pyrazolo[3,4-c]pyridine-3,7-diamine]
16 | 3 | CN(C)C(=O)Cn1ccc(Nc2cc3[nH]nc(N)c3c(-c3ccc(Oc4ccccc4)cc3)n2)n1 [Example 249, 2-(3-((3-Amino-4-(4-phenoxyphenyl)-1H-pyrazolo[4,3-c]pyridin-6-yl)amino)-1H-pyrazol-1-yl)-N,N-dimethylacetamide]
17 | 290 | COc1cccc(-c2cnc(Nc3ccccc3)c3[nH]nc(N)c23)c1 [Example 128, 4-(3-Methoxyphenyl)-N^7-phenyl-1H-pyrazolo[3,4-c]pyridine-3,7-diamine]
18 | 2 | COC(=O)C(=O)N1CCCC(c2cc3[nH]nc(N)c3c(-c3ccc(Oc4ccccc4)cc3)n2)C1 (stereo not drawn) [Example 238, Methyl(3-(3-amino-4-(4-phenoxyphenyl)-1H-pyrazolo[4,3-c]pyridin-6-yl)-1-piperidinyl)(oxo)acetate]
19 | 2 | Nc1n[nH]c2cc(C3CCN(C(=O)Nc4ccccc4)CC3)nc(-c3ccc(Oc4ccccc4)cc3)c12 [Example 242, 4-(3-Amino-4-(4-phenoxyphenyl)-1H-pyrazolo[4,3-c]pyridin-6-yl)-N-phenyl-1-piperidinecarboxamide]
20 | 4 | C=CC(=O)N1CCCC(c2cc3[nH]nc(N)c3c(-c3ccc(Oc4ccccc4)cc3)n2)C1 (stereo not drawn) [Example 237, 6-(1-Acryloyl-3-piperidinyl)-4-(4-phenoxyphenyl)-1H-pyrazolo[4,3-c]pyridin-3-amine]
21 | 230 | COc1cccc(-c2cnc(Nc3ccccc3Cl)c3[nH]nc(N)c23)c1 [Example 130, N^7-(2-Chlorophenyl)-4-(3-methoxyphenyl)-1H-pyrazolo[3,4-c]pyridine-3,7-diamine]
22 | 2 | Nc1n[nH]c2cc(-c3ccc(-c4nnn[nH]4)cc3)nc(-c3ccc(Oc4ccccc4)cc3)c12 [Example 223, 4-(4-Phenoxyphenyl)-6-(4-(1H-tetrazol-5-yl)phenyl)-1H-pyrazolo[4,3-c]pyridin-3-amine]
23 | 3 | Nc1n[nH]c2cc(C3CCCN(C(=O)Nc4ccccc4)C3)nc(-c3ccc(Oc4ccccc4)cc3)c12 (stereo not drawn) [Example 236, 3-(3-Amino-4-(4-phenoxyphenyl)-1H-pyrazolo[4,3-c]pyridin-6-yl)-N-phenyl-1-piperidinecarboxamide]
24 | 16100 | Nc1n[nH]c2c(-c3cccc(C(F)(F)F)c3)ncc(-c3ccc(Oc4ccccc4)cc3)c12 [Example 108, 4-(4-Phenoxyphenyl)-7-(3-(trifluoromethyl)phenyl)-1H-pyrazolo[3,4-c]pyridin-3-amine]
25 | 1 | Nc1n[nH]c2c(-c3ccccn3)cnc(-c3ccc(Oc4ccccc4)cc3)c12 [Example 225, 4-(4-Phenoxyphenyl)-7-(2-pyridinyl)-1H-pyrazolo[4,3-c]pyridin-3-amine]
26 | 240 | Cc1ccccc1Nc1ncc(-c2cccc(OC(C)C)c2)c2c(N)n[nH]c12 [Example 137, 4-(3-Isopropoxyphenyl)-N^7-(2-methylphenyl)-1H-pyrazolo[3,4-c]pyridine-3,7-diamine]
27 | 240 | Nc1n[nH]c2nc(-c3cccs3)nc(-c3ccc(Oc4ccccc4)cc3)c12 [Example 120, 4-(4-Phenoxyphenyl)-6-(2-thienyl)-1H-pyrazolo[3,4-δ]pyrimidin-3-amine]
